In the assay the test system is CD3ε. The assay is described as follows: tyrosine phosphorylation of CD3ε, immunoprecipitation and anti-phosphotyrosine immunoblot. Type of assay: cell-based, mouse. How it is done:
Immunoprecipitation and Immunoblotting. Enriched primed T cells (2×10^6 cells) in a 24 well Corning plate were TCR-stimulated with 2C11 in the presence of α-MSH (30 pg/ml) under serum-free conditions for 15 minutes. The T cells were collected, placed in a microcentrifuge tube and washed once with 10 mM Tris buffered saline (TBS) and lysed for 30 minutes in 100 μl of ice cold lysate buffer (10 mM TBS, 1% NP-40, 0.5% sodium deoxycholate, 0.1% SDS, 100 μg/ml phenylmethylsulfonyl fluoride (PMSF), 60 μg/ml Aprotinin, and 1 mM sodium orthovanadate). The cells were passed through a 21 gauge needles three times, and an additional 2 μl of 10 mg/ml PMSF was added. The tubes were incubated for an additional 30 minutes on ice and were centrifuged for 20 minutes, 4° C., 13,000×g. The supernatant was collected and used as total cellular lysate. The protein concentration was measured, and added to equal amounts of protein lysate were 20 μg/ml anti-CD3ζ antibody, or anti-CD3ε antibody plus rabbit anti-hamster IgG antibody and incubated overnight at 4° C. The rabbit anti-hamster IgG was needed for the CD3ε immunoprecipitation, since much of the CD3ε was bound by 2C11 a hamster anti-mouse […] and hamster antibody weakly binds protein-G. Protein-G sepharose beads (Pharmacia, Piscataway, N.J.) were added to the antibody containing lysates and incubated for 1 hour at room temperature with end over end agitation. The beads were centrifuged and washed 4 times with 10 mM TBS containing 0.5% sodium deoxycholate. After the final wash the beads were resuspended in 20 μl of distilled water and 20 μl non-reducing SDS Tris-glycine sample buffer (Novex, San Diego, Calif.), boiled for 5 minutes and applied into two wells (20 μl) of a 8-16% Tris-glycine polyacrylamide gel (Novex).
Following electrophoresis in a Novex Xcell II minicell and blot module, the proteins were transferred from the gel onto a nitrocellulose membrane (Novex) by electroblotting. The membrane was blocked with 1% BSA in 0.01 M TBS for 1 hour room temperature. […] Membranes were digitally photographed and analyzed using NIH Image software to integrate the band intensities relative to band area minus background. […]
The enriched primed T cells (2×10^6 cells) were incubated with anti-CD3 in the presence of α-MSH (30 pg/ml) for 15 minutes. […] The immunoprecipitates were analyzed by non-reducing SDS-PAGE (on a 8-16% gradient gel), followed by transfer to a nitrocellulose filter and immunoblotting with anti-phosphotyrosine antibody: (1) Unstimulated primed T cells treated with α-MSH; (2) Unstimulated primed T cells incubated in media alone; (3) Enriched primed T cells TCR-stimulated in the absence of α-MSH; (4) Enriched primed T cells TCR-stimulated in the presence of α-MSH. […]
A general note: A western blot detects proteins with antibodies after separation by electrophoresis.

No end group written: not given here.

As for “α-melanocyte stimulating hormone (SYSMEHFRWGKPV; not fully specified; ends and bridges not checked; UniProt P01189 138-150, looked up) [α-MSH, synthetic α-MSH (Peninsula Laboratories); thirteen-amino acid neuropeptide derived from POMC]”, the “level of tyrosine phosphorylation of CD3ε chains” value (TCR-stimulated and unstimulated primed T cells, Example I (FIG. 7B)) is recorded as “no effect”. Moreover, the “relative intensity of phosphotyrosine band, CD3ε” value by setting is: (TCR-stimulated primed T cells, α-MSH 30 pg/ml, 15 minutes (lane 4; without α-MSH 10)) 10; (unstimulated primed T cells, α-MSH 30 pg/ml, 15 minutes (lane 1; media alone 1)) 1. Under “TCR-stimulated primed T cells, α-MSH 30 pg/ml, 15 minutes, Example III (FIG. 18A)”, the “overall level of tyrosine phosphorylation of CD3ε” value is listed as “no significant change”.
